Source: patent US10525269B2, “Methods for improving heart function” (THE JOHNS HOPKINS UNIVERSITY, priority 2010, dated 2020)
“Also recorded” adds a separate entry of the source.

Experiments:
[1] = Pearce (2009); cited from earlier work
isolated myocytes = assay: Myocyte sarcomere shortening and whole-cell calcium transients; type: cell-based, dog; design: effect of PTX on zinterol-stimulated shortening and Ca2+ transients: dose or concentration left out as unconfirmed
Method: Myocyte sarcomere shortening and whole-cell calcium transients were assessed with an inverted microscope (Ellipse TE2001, Nikon) equipped with an image-fluorescence system (MyoCam, IonOptix).
Adenovirus-mediated gene transfer of GFP, RGS2, or RGS3 was implemented by adding a minimal volume of the FBS-free MEM containing the gene-carrying adenovirus (100 multiplicities of infection). The full volume of FBS-free MEM was supplied after culture for another 1 to 2 hours. RGS expression and myocyte functional changes were assessed at 24 hours after transfection.

cAMP = assay: Membrane-localized cAMP FRET probe (ICUE3) in isolated myocytes; type: cell-based, dog; details: in presence of IBMX
Description: Adult myocytes were infected with an adenovirus expressing either the modified EPAC-based cAMP FRET sensor (ICUE3) (DiPilato et al. (1999) J Biol Chem. 274:22048-22052) or SR-localized PKA activity sensor SR-AKAR3 (Liu et al. (2011) Biochem Biophys Res Commun. 404:581-586). Just before study, cells were washed two times with Hanks' balanced salt solution and imaged at room temperature in the dark. Dual-emission ratio imaging used a 420DF20 excitation filter, a 450DRLP dichroic mirror, and two emission filters (475DF40 for cyan fluorescent protein and 535DF25 for yellow fluorescent protein) and was performed on a Zeiss Axiovert 200 M microscope with a MicroMAX BFT512 cooled charge-coupled device camera (Roper Scientific) controlled by MetaFluor 6.2 software (Universal Imaging). […]
To further clarify the nature of the altered β2-AR signalling, studies were performed in isolated myocytes infected with an adenovirus containing a plasma membrane-targeted adenosine 3′,5′-monophosphate (cAMP)-sensitive fluorescence resonance energy transfer (FRET) probe (ICUE3) based on the EPAC1 (exchange protein directly activated by cAMP 1) binding domain (FIG. 6A; DiPilato et al. (1999) J Biol Chem. 274:22048-22052). […]

PKA = assay: SR-localized PKA activity FRET sensor (SR-AKAR3) in myocytes; type: cell-based, dog
Description: Adult myocytes were infected with an adenovirus expressing either the modified EPAC-based cAMP FRET sensor (ICUE3) (DiPilato et al. (1999) J Biol Chem. 274:22048-22052) or SR-localized PKA activity sensor SR-AKAR3 (Liu et al. (2011) Biochem Biophys Res Commun. 404:581-586). Just before study, cells were washed two times with Hanks' balanced salt solution and imaged at room temperature in the dark. Dual-emission ratio imaging used a 420DF20 excitation filter, a 450DRLP dichroic mirror, and two emission filters (475DF40 for cyan fluorescent protein and 535DF25 for yellow fluorescent protein) and was performed on a Zeiss Axiovert 200 M microscope with a MicroMAX BFT512 cooled charge-coupled device camera (Roper Scientific) controlled by MetaFluor 6.2 software (Universal Imaging). Fluorescent images (taken every 20 to 30 s) were background-corrected by subtracting autofluorescence intensities of untransfected cells (or background with no cells) from the emission intensities of cells expressing reporters.
To further clarify the nature of the altered β2-AR signalling, studies were performed in isolated myocytes infected with an adenovirus containing a plasma membrane-targeted adenosine 3′,5′-monophosphate (cAMP)-sensitive fluorescence resonance energy transfer (FRET) probe (ICUE3) based on the EPAC1 (exchange protein directly activated by cAMP 1) binding domain (FIG. 6A; DiPilato et al. (1999) J Biol Chem. 274:22048-22052). After 24 hours, cells were stimulated with either zinterol or fenoterol, each in the presence of a broad-spectrum phosphodiesterase (PDE) inhibitor, IBMX. […] Previous studies have proposed that reduced Gαi coupling to the β2-AR can modify the targeting of cAMP, resulting in enhanced protein kinase A (PKA) activation of sarcoplasmic reticulum (SR) calcium handling proteins and thus augmentation of the Ca^2+ and associated myocyte shortening (Kuschel et al. (1999) J. Biol. Chem. 274:22048-22052).

## CC(Cc1ccc(O)cc1)NCC(O)c1cc(O)cc(O)c1 (single isomer, unassigned) [fenoterol as a mixture of R,R-enantiomer and S,S-enantiomer, fenoterol]
[1]
  mortality in asthma use: worsened death

## CC(Cc1ccc(O)cc1)NCC(O)c1cc(O)cc(O)c1 (stereo not shown) [fenoterol]
Isolated myocytes; HFdys and HFsyn
  fenoterol response compared with zinterol alone: augmented over zinterol alone
cAMP; all groups
  fenoterol-stimulated cAMP response (FRET ratio): all responded similarly; also recorded: similarly elevated response
PKA; cells from all models
  PKA activation at the SR: PKA activation was detected
PKA; cells from all models, listed as Fenoterol
  PKA activation at the SR: stimulated PKA at the SR in all models

## CC(C)NCC(O)c1ccc(O)c(O)c1 (stereo not shown) [isoproterenol]
Isolated myocytes; AVA myocytes, compared with CRT
  isoproterenol-stimulated shortening, relaxation, and peak calcium: similar
Isolated myocytes; myocytes from HFdys or HFsyn
  isoproterenol-stimulated sarcomere shortening and relengthening, peak Ca2+ transient and decay rate: equally depressed; also recorded: markedly and similarly depressed
Isolated myocytes; myocytes from resynchronization models (CRT, V3A3)
  isoproterenol-stimulated sarcomere shortening and relengthening, peak Ca2+ transient and decay rate: back to near-control levels; also recorded: returned to control levels

## CC(C)(Cc1ccccc1)NCC(O)c1ccc(O)c(NS(C)(=O)=O)c1 (stereo not shown) [zinterol]
Isolated myocytes; AVA cells
  response to zinterol: responded robustly
Isolated myocytes; cells from resynchronized hearts
  shortening and Ca2+ transient response to zinterol: enhanced responses
cAMP; resynchronization models vs other groups incl. control
  zinterol-stimulated cAMP increase (FRET ratio): exceeded that in the other groups; also recorded: greater response
PKA; CRT cells
  PKA activation at the SR: activation was detectable; also recorded: showed PKA activation
PKA; myocytes from HFdys or HFsyn
  PKA stimulation detected at the SR: negligible PKA stimulation

## pertussis toxin [PTX]
Isolated myocytes; AVA myocytes
  effect of PTX on zinterol-stimulated functional or Ca2+ response: not further altered; also recorded: minimal augmentation
Isolated myocytes; HFdys and HFsyn
  effect of PTX pretreatment on isoproterenol-stimulated sarcomere shortening (% SS) and whole-cell calcium transient: greatly enhanced both behaviors
Isolated myocytes; cells from HFdys and HFsyn
  effect of PTX on zinterol-stimulated shortening and Ca2+ transients: greatly amplified the response; also recorded: marked augmentation
Isolated myocytes; cells from resynchronized hearts (CRT, V3A3)
  effect of PTX on zinterol-stimulated shortening and Ca2+ transients: little changed
Isolated myocytes; control myocytes
  effect of PTX on zinterol-stimulated shortening and Ca2+ transients: augmented zinterol-stimulated shortening and Ca^2+ transients slightly
Isolated myocytes; resynchronized models
  effect of PTX pretreatment on isoproterenol-stimulated sarcomere shortening (% SS) and whole-cell calcium transient: no impact
